Measured values from PMC10896221, “Elucidating the glycan-binding specificity and structure of Cucumis melo agglutinin, a new R-type lectin” (Beilstein Journal of Organic Chemistry, 2024).

Assays:
[1] = target: T1, Cucumis melo agglutinin (CMA1) (Cucumis melo, UniProt A0A1S4E5V9, L33V); experiment: X-ray crystal structure ([…] Å) and ITC; thermal shift with full-length protein; format: binding
T1 construct: gene LOC107992255; CMA1-Nter, N-terminal domain (6–132 in mature protein)

[2] = target: T2, Cucumis melo agglutinin (CMA1) (Cucumis melo, UniProt A0A1S4E5V9); experiment: X-ray crystal structure ([…] Å); SPR competition on GalNAc chip; format: binding
T2 construct: gene LOC107992255; full-length CMA1, both CBM13 domains; probably CHO-S expressed with C-terminal His6
T2 sequence (A0A1S4E5V9 entry or part of it): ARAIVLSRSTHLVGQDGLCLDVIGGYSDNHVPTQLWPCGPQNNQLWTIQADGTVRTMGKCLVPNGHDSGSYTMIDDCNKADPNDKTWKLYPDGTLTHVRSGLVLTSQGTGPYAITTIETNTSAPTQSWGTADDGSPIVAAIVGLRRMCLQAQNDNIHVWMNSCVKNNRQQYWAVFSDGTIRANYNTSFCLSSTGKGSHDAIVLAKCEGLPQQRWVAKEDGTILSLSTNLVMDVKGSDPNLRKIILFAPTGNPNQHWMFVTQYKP

T1 sequence (A0A1S4E5V9 entry or part of it L33V): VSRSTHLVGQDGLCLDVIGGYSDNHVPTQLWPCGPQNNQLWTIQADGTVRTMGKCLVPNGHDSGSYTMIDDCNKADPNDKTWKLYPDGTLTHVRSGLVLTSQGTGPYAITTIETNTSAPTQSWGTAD

| Structure (SMILES) | Kd [1] [µM] | IC50 [2] [µM] |
| --- | --- | --- |
| CC(=O)N[C@@H]1[C@@H](O)[C@@H](O)[C@@H](CO)O[C@H]1O [GalNAc] | 940 |  |
| CC(=O)N[C@@H]1[C@@H](O)[C@H](O[C@@H]2O[C@H](CO)[C@H](O)[C@H](O)[C@H]2O)[C@@H](CO)O[C@@H]1O [LacNAc, N-acetyllactosamine] |  | 1.4 |
